Data taken from patent EP1188765B1, “Medical Use of Mechanism-oriented inhibitors of dipeptidyl peptidase I” (Probiodrug AG, priority 1998, dated 2000).
“Also recorded” adds a separate entry of the source.

Experiments:
DP Ihum = target: T1, DP Ihum (Homo sapiens, UniProt P53634); test: Inactivation of DP I from human kidney (second-order rate constants); format: biochemical
T1 construct: DP I (humane Niere); from tissue; host or cells: human kidney

DP Ibovine = target: T2, DP Ibovine (Bos taurus, UniProt Q3ZCJ8); test: Inactivation of DP I from bovine kidney (second-order rate constants); format: biochemical, Rinder
T2 construct: Inaktivierung der DP I aus Rinder- bzw. humaner Niere mittels H-Gly-Phe-NHO-Bz; from tissue; host or cells: bovine kidney

DP I [1] = conditions: literature (Nikawa et al., 1992); cited from earlier work
Cathepsin L (hum. Leber) = target: T3, Cathepsin L (hum. Leber) (Homo sapiens, UniProt P07711); test: Inactivation of cathepsin L (second-order rate constants); format: biochemical; conditions: Table 3
T3 construct: Cathepsin L (hum. Leber); from tissue; host or cells: human liver

Cathepsin B (hum. Leber) = target: T4, Cathepsin B (hum. Leber) (Homo sapiens, UniProt P07858); test: Inactivation of cathepsin B (second-order rate constants); format: biochemical; conditions: Table 3
T4 construct: Cathepsin B (hum. Leber); from tissue; host or cells: human liver

DP I [2] = target: DP I (Homo sapiens, UniProt P53634); test: Protection of glucagon from degradation by DP I, MALDI-TOF mass spectra; format: biochemical; conditions: 0.14 mM Glukagon, 40 mM TRIS/HCl pH 7,6; enzyme 15 nM; inhibitor 300 nM, 5 min preincubation with DP I
From the text: Schutz des Abbaus des Peptidhormons Glukagon durch Vorinkubation von DP I mit H-Gly-Phe-NHO-Bz
Abbildung 1: MALDI-TOF-Massenspektren von Reaktionslösungen, die Glukagon und DP I enthalten.

[3] = tested on: "DCE" (Dynorphin Converting Enzyme); conditions: Demuth et al. 1991; cited from earlier work
[4] = DP Ihum, inhibitor concentration 1e^-4 M, Table 2
[5] = DP Ibovine, inhibitor concentration 1e^-4 M, Table 2
[6] = DP Ihum, inhibitor concentration 2e^-5 M, Table 2
[7] = DP Ibovine, inhibitor concentration 2e^-5 M, Table 2

T1 sequence (P53634 231-394 limits assumed): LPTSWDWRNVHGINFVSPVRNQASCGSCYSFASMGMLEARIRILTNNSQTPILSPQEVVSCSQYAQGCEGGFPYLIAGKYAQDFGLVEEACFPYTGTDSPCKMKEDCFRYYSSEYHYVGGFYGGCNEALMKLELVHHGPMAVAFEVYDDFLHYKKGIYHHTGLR
T1 sequence (P53634 25-143 limits assumed): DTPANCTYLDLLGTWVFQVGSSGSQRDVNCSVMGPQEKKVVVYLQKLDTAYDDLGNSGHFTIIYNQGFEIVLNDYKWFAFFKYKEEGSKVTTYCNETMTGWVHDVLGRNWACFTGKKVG
T1 sequence (P53634 395-463 limits assumed): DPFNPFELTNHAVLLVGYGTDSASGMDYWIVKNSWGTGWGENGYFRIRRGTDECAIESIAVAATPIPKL
T2 sequence (Q3ZCJ8 231-394 limits assumed): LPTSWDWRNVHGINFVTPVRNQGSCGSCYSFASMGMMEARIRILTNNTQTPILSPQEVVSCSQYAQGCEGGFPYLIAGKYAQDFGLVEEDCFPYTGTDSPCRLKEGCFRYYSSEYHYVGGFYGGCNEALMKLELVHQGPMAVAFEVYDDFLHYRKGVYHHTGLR
T2 sequence (Q3ZCJ8 25-143 limits assumed): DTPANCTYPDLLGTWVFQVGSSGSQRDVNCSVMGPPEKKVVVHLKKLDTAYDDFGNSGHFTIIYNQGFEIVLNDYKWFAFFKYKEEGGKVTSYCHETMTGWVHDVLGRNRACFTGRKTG
T2 sequence (Q3ZCJ8 395-463 limits assumed): as the sequence (P53634 395-463 limits assumed) above, with S22A, M26L, G38S, V61L counted along it
T3 sequence (P07711 114-333): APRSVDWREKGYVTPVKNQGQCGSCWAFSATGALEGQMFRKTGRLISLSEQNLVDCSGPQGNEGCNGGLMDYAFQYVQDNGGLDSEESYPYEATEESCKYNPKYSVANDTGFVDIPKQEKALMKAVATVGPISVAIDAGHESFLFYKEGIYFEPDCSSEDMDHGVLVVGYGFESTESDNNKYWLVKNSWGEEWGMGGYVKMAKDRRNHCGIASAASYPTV
Sequence of DP I (Homo sapiens, UniProt P53634) (P53634 25-463): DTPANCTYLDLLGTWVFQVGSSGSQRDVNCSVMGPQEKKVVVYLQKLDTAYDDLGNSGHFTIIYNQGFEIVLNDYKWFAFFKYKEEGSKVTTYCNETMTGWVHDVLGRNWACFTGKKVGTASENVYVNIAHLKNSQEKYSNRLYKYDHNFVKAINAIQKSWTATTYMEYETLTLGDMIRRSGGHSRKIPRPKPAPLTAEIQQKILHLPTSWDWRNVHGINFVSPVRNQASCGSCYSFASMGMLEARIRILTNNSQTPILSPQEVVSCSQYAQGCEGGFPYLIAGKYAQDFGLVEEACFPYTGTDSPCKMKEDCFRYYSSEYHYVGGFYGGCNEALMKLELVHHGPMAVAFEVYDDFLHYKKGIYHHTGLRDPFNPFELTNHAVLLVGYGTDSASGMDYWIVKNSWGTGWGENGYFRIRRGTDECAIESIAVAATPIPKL

C[C@H](NC(=O)OC(C)(C)C)C(=O)N[C@@H](C)C(=O)N[C@@H](C)C(=O)NOC(=O)c1ccccc1 [Boc-Ala-Ala-Ala-NHO-Bz]
kinact/Ki (DP Ihum; [4]): keine Hemmung (1e^-4) | kinact/Ki (DP Ibovine; [5]): keine Hemmung (1e^-4)

C[C@H](NC(=O)OC(C)(C)C)C(=O)N[C@@H](C)C(=O)NOC(=O)c1ccccc1 [Boc-Ala-Ala-NHO-Bz]
kinact/Ki (DP Ihum; [4]): keine Hemmung (1e^-4) | kinact/Ki (DP Ibovine; [5]): keine Hemmung (1e^-4)

C[C@H](NC(=O)OC(C)(C)C)C(=O)N1CCC[C@H]1C(=O)N[C@@H](Cc1ccccc1)C(=O)NOC(=O)c1ccccc1 [Boc-Ala-Pro-Phe-NHO-Bz]
kinact/Ki (DP Ihum; [4]): keine Hemmung (1e^-4) | kinact/Ki (DP Ibovine; [5]): keine Hemmung (1e^-4)

CC(C)C[C@H](NC(=O)[C@H]1O[C@@H]1C(=O)O)C(=O)NCCCCN=C(N)N [E-64]
Inhibierung der DP I (DP I [1]): nur schwach inhibiert; also recorded: inert

NCC(=O)N[C@@H](Cc1ccccc1)C(=O)NOC(=O)c1ccccc1 [H-Gly-Phe-NHO-Bz, N-(H-Gly-Phe-),O-Benzoyl Hydroxylamin]
kinact/KI (Cathepsin L (hum. Leber)): 37 M⁻¹ s⁻¹ | kinact/Ki (DP Ihum; DP I (humane Niere), Table 3): 34979 s^-1M^-1 | kinact/KI (DP Ihum; DP I from human kidney, Table 1): 35000 M⁻¹ s⁻¹ | kinact/KI (Cathepsin B (hum. Leber)): 87 M⁻¹ s⁻¹ | kinact/KI (DP Ibovine; DP I from bovine kidney, Table 1): 36700 M⁻¹ s⁻¹ | Inhibierung des Glukagonabbaus durch DP I (DP I [2]): Inhibierung des Glukagonabbaus

N[C@@H](Cc1ccc(O)cc1)C(=O)NCC(=O)NOC(=O)c1ccccc1 [H-Tyr-Gly-NHO-Bz]
Inhibierung des Enzyms DCE [3]: nur schwach und reversibel inhibiert | kinact/KI (DP Ihum; DP Ihum, inhibitor concentration 1e^-6 M, Table 2): 3620 M⁻¹ s⁻¹ | kinact/KI (DP Ibovine; DP Ibovine, inhibitor concentration 1e^-6 M, Table 2): 3950 M⁻¹ s⁻¹

CC(=O)N[C@@H](CC(C)C)C(=O)N[C@@H](CC(C)C)C(=O)N[C@H](C=O)CCCNC(=N)N [Leupeptin]
Inhibierung der DP I (DP I [1]): nur schwach inhibiert

Cc1ccc(C(=O)ONC(=O)[C@H](Cc2ccccc2)NC(=O)CNC(=O)OCc2ccccc2)cc1 [Z-Gly-Phe-NHO-Bz-CH3]
kinact/Ki (DP Ihum; [6]): keine Hemmung (2e^-5) | kinact/Ki (DP Ibovine; [7]): keine Hemmung (2e^-5)

O=C(CNC(=O)OCc1ccccc1)N[C@@H](Cc1ccccc1)C(=O)NOC(=O)c1ccccc1 [Z-Gly-Phe-NHO-Bz]
kinact/KI (Cathepsin L (hum. Leber)): 223 M⁻¹ s⁻¹ | kinact/Ki (DP Ihum; DP I (humane Niere), Table 3): Keine Hemmung | kinact/KI (Cathepsin B (hum. Leber)): 418 M⁻¹ s⁻¹

H-Ile-Pro-NHO-Nb
kinact/Ki (DP Ihum; [6]): 208 M⁻¹ s⁻¹ | kinact/Ki (DP Ibovine; [7]): 149 M⁻¹ s⁻¹
